Key:
Type in all cases: cell-based
Mero82 cells = assay: Mero82 proliferation and cell viability assay (CTG); details: Mero82 cell line, 144 hours
Description: Mero 82 cells were trypsinised, counted and plated at 400 cells/well in 200 μl of growth media in 96 well flat bottom tissue culture treated plates. The plated cells were incubated overnight at 37° C., 5% CO2 before being treated with compounds in triplicate for each assay point. 50 μl of the serially diluted compound was added to each well giving a final DMSO concentration of 0.5% per well and a total volume of 250 μl per well. The treated cells were incubated for 144 hours (6 days) at 37° C., 5% CO2. Following compound treatment, the remaining viable cells were detected using the Promega CellTiter-Glo 2.0 assay as follows: 150 μl of media was removed from each of the wells to be assayed and 100 μl of room temperature CellTiter-Glo 2.0 reagent was added. The plate was placed on an orbital shaker at 500 rpm at room temperature for 2 minutes, and then incubated without shaking for a further 10 minutes at room temperature. 150 μl of cell lysate was removed from each well and dispensed into a single well of a white opaque 96 well plate. Luminescence at 545 nm was read using a BMG CLARIOstar plate reader. The luminescent signal was directly proportional to number of viable cells, the percent of viable cells relative to the DMSO control was then calculated for each assay point. Percent viability relative to DMSO control is plotted against compound concentration and a curve fitted with non-linear regression in GraphPad Prism software. IC50 values were calculated using GraphPad Prism software as follows: For Relative IC50 values a non-constrained four-parameter logistic curve fit was used (Sigmoidal, 4PL, X is concentration). For Absolute IC50 values the baseline was constrained to Y=0 (Absolute IC50, X is concentration). Area Under the Curve (AUC): Prism computes area-under-the-curve by the trapezoidal method. The analysis sees a fitted curve as simply a series of connected XY points. Prism simply computes the area under the “curve” defined by connecting the points by straight lines. The units of the AUC are the units of the Y axis times units of the X axis.

LOU-NH91 cells = assay: LOU-NH91 proliferation and cell viability assay (CTG); details: LOU-NH91 cell line, 216 hours
Description: LOU-NH91 cells were trypsinised, counted and plated at the specified cell density in 200 μl of growth media in 96 well flat bottom tissue culture treated plates. The plated cells were incubated overnight at 37° C., 5% CO2 before being treated with compounds in triplicate for each assay point. 50 μl of the serially diluted compound was added to each well giving a final DMSO concentration of 0.5% per well and a total volume of 250 μl per well. The treated cells were incubated for 216 hours (9 days) at 37° C., 5% CO2. Following compound treatment, the remaining viable cells were detected using the Promega CellTiter-Glo 2.0 assay as follows: 150 μl of media was removed from each of the wells to be assayed and 100 μl of room temperature CellTiter-Glo 2.0 reagent was added. The plate was placed on an orbital shaker at 500 rpm at room temperature for 2 minutes, and then incubated without shaking for a further 10 minutes at room temperature. 150 μl of cell lysate was removed from each well and dispensed into a single well of a white opaque 96 well plate. Luminescence at 545 nm was read using a BMG CLARIOstar plate reader. The luminescent signal was directly proportional to number of viable cells, the percent of viable cells relative to the DMSO control was then calculated for each assay point. Percent viability relative to DMSO control was plotted against compound concentration and a curve fitted with non-linear regression in GraphPad Prism software. EC50 and IC50 values were calculated using GraphPad Prism software as follows: For EC50 values a non-constrained four-parameter logistic curve fit was used (Sigmoidal, 4PL, X is concentration). For Absolute IC50 values the baseline was constrained to Y=0 (Absolute IC50, X is concentration). Area Under the Curve (AUC): Prism computes area-under-the-curve by the trapezoidal method. The analysis sees a fitted curve as simply a series of connected XY points. Prism simply computes the area under the “curve” defined by connecting the points by straight lines. The units of the AUC are the units of the Y axis times units of the X axis.

BHY cells = assay: BHY proliferation and cell viability assay (CTG); details: BHY cell line
Description: BHY cells were trypsinised, counted and plated at the specified cell density in 200 μl of growth media in 96 well flat bottom tissue culture treated plates. The plated cells were incubated overnight at 37° C., 5% CO2 before being treated with compounds in triplicate for each assay point. 50 μl of the serially diluted compound was added to each well giving a final DMSO concentration of 0.5% per well and a total volume of 250 μl per well. The treated cells were incubated for 144 hours (6 days) at 37° C., 5% CO2. Following compound treatment, the remaining viable cells were detected using the Promega CellTiter-Glo 2.0 assay as follows: 150 μl of media was removed from each of the wells to be assayed and 100 μl of room temperature CellTiter-Glo 2.0 reagent was added. The plate was placed on an orbital shaker at 500 rpm at room temperature for 2 minutes, and then incubated without shaking for a further 10 minutes at room temperature. 150 μl of cell lysate was removed from each well and dispensed into a single well of a white opaque 96 well plate. Luminescence at 545 nm was read using a BMG CLARIOstar plate reader. The luminescent signal was directly proportional to number of viable cells, the percent of viable cells relative to the DMSO control was then calculated for each assay point. Percent viability relative to DMSO control was plotted against compound concentration and a curve fitted with non-linear regression in GraphPad
Prism software. EC50 and IC50 values are calculated using GraphPad Prism software as follows: For EC50 values, a non-constrained four-parameter logistic curve fit was used (Sigmoidal, 4PL, X is concentration). For Absolute IC50 values the baseline was constrained to Y=0 (Absolute IC50, X is concentration). Area Under the Curve (AUC): Prism computes area-under-the-curve by the trapezoidal method. The analysis sees a fitted curve as simply a series of connected XY points. Prism simply computes the area under the “curve” defined by connecting the points by straight lines. The units of the AUC are the units of the Y axis times units of the X axis.

Structure (SMILES)	EC50 (Mero82 cells) [nM]	EC50 (LOU-NH91 cells) [nM]	EC50 (BHY cells; 144 h) [nM]	EC50 (BHY cells; 144 hours) [nM]
COc1cc(C2=CCC(C(F)(F)F)CC2)c2ncc(C(=O)N[C@H](C)CO)cc2c1 (stereo partly drawn) [Compound 110, N—((R)-1-hydroxypropan-2-yl)-6-methoxy-8-(4-(trifluoromethyl)cyclohex-1-en-1-yl)quinoline-3-carboxamide]	< 200			
C[C@@H](NC(=O)c1cnc2c(C3=CCC4(CC3)CC4)cccc2c1)c1ncco1 [Compound 166, (R)—N-(1-(oxazol-2-yl)ethyl)-8-(spiro[2.5]oct-5-en-6-yl)quinoline-3-carboxamide]	< 200			
COC[C@H](CO)NC(=O)c1cnc2c(C3=CCC(C(F)(F)F)CC3)cccc2c1 (stereo partly drawn) [Compound 62, N—((S)-1-hydroxy-3-methoxypropan-2-yl)-8-(4-(trifluoromethyl)cyclohex-1-en-1-yl)quinoline-3-carboxamide]	< 200	< 200	< 200	
O=C(NCc1ncco1)c1cnc2c(C3=CCC(C(F)(F)F)CC3)cccc2c1 (stereo not drawn) [Compound 11, N-(oxazol-2-ylmethyl)-8-(4-(trifluoromethyl)cyclohex-1-en-1-yl)quinoline-3-carboxamide]	< 200			
C[C@H](NC(=O)c1cnc2c(C3=CC[C@@H](C(F)(F)F)CC3)cccc2c1)c1ncco1 (single isomer, unassigned) [Compound 20, N-(1-(oxazol-2-yl)ethyl)-8-(4-(trifluoromethyl)cyclohex-1-en-1-yl)quinoline-3-carboxamide]		< 200	< 200	
C[C@H](CO)NC(=O)c1cnc2c(C3=CCC4(CC3)CC(F)(F)C4)cccc2c1 [Compound 165, (R)-8-(2,2-difluorospiro[3.5]non-6-en-7-yl)-N-(1-hydroxypropan-2-yl)quinoline-3-carboxamide]	< 200			
FC(F)(F)c1ccc(CN2CCC(C3CC(Br)=NO3)CC2)cc1 (stereo not drawn) [Compound 1-2, reference compound]	> 1000	< 200	> 1000	
COc1cc(C2=CCC(C(F)(F)F)CC2)c2ncc(C(=O)N[C@H](C)c3ncco3)cc2c1 (stereo partly drawn) [Compound 109, 6-methoxy-N—((R)-1-(oxazol-2-yl)ethyl)-8-(4-(trifluoromethyl)cyclohex-1-en-1-yl)quinoline-3-carboxamide]	< 200	< 200	< 200	
O=C(NCc1ccn[nH]1)c1cnc2c(C3=CCC(C(F)(F)F)CC3)cccc2c1 (stereo not drawn) [Compound 47, N-((1H-pyrazol-5-yl)methyl)-8-(4-(trifluoromethyl)cyclohex-1-en-1-yl)quinoline-3-carboxamide]	< 200	< 200	< 200	
C=CC(=O)Nc1ccc(C)c(Oc2ccc(Cl)cc2)c1 [Compound 1-3, reference compound]	< 200	< 200	< 200	
C[C@H](NC(=O)c1cnc2c(C3=CC[C@@H](C(F)(F)F)CC3)cccc2c1)c1ncco1 (single isomer, unassigned) [Compound 19, N-(1-(oxazol-2-yl)ethyl)-8-(4-(trifluoromethyl)cyclohex-1-en-1-yl)quinoline-3-carboxamide]	< 200	< 200		< 200
C[C@H](CO)NC(=O)c1cnc2c(C3=CCC(C(F)(F)F)CC3)cccc2c1 (stereo partly drawn) [Compound 7, N—((R)-1-hydroxypropan-2-yl)-8-(4-(trifluoromethyl)cyclohex-1-en-1-yl)quinoline-3-carboxamide]	< 200	< 200	< 200	

— patent US20250223306A1, “TEAD INHIBITORS AND METHODS OF USE” (Sporos BioDiscovery, Inc., priority 2022, published 2025)
